One data set deals with T1, BCRP/ABCG2 (Homo sapiens, UniProt Q9UNQ0).
T1 sequence (Q9UNQ0 1-655): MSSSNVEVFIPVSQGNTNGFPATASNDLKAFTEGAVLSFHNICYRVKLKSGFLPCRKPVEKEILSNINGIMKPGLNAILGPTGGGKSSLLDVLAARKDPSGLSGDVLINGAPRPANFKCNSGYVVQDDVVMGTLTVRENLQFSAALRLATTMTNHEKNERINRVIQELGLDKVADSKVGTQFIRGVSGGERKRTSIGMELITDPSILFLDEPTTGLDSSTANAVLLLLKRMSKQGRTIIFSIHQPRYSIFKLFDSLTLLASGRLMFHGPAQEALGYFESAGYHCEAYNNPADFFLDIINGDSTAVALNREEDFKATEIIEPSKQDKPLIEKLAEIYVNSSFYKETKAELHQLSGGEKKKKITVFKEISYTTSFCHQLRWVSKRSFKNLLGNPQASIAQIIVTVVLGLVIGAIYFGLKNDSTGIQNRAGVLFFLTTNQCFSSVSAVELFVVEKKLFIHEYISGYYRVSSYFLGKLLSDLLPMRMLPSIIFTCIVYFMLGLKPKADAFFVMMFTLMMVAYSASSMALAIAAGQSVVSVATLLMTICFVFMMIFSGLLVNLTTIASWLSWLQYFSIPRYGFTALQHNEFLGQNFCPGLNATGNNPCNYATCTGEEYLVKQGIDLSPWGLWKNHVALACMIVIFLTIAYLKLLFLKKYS
In words: BCRP-mediated mitoxantrone efflux inhibition, ABCG2-transfected HEK293 cells, flow cytometry.

A further data set concerns the target T2, P-gp (ABCB1) (Homo sapiens, UniProt P08183).
T2 construct: expressed in transfected cells; host or cells: NIH/3T3
In words: P-gp-mediated rhodamine 123 efflux inhibition (selectivity assay), ABCB1-transfected NIH/3T3 cells. In kind it is cell-based. The following applies: probe rhodamine 123 (R123), 0.5 μM R123; for inhibition at 30 min, 1 μM: [Inhibitor] 1 μM; for inhibition at 30 min, 10 μM: [Inhibitor] 10 μM. How it is done: (§1) The tests were performed in triplicate.

A further data set addresses T3, MRP1 (ABCC1) (Homo sapiens, UniProt P33527).
T3 construct: expressed in transfected cells; host or cells: Flp-In 293
In words: MRP1-mediated calcein-AM efflux inhibition (selectivity assay), ABCC1-transfected Flp-In 293 cells. In kind it is cell-based. The following applies: probe calcein-AM (cAM), 0.2 μM cAM; for inhibition at 30 min, 1 μM: [Inhibitor] 1 μM; for inhibition at 30 min, 10 μM: [Inhibitor] 10 μM. How it is done:
as §1

For data set [1] the following is noted: hydrolysis of tertiary butyl ester to inactive metabolite; cited from earlier work.
The mark [2] stands for this setting: human, probe mitoxantrone (MX), 4 μM.

T3 sequence (P33527 whole entry): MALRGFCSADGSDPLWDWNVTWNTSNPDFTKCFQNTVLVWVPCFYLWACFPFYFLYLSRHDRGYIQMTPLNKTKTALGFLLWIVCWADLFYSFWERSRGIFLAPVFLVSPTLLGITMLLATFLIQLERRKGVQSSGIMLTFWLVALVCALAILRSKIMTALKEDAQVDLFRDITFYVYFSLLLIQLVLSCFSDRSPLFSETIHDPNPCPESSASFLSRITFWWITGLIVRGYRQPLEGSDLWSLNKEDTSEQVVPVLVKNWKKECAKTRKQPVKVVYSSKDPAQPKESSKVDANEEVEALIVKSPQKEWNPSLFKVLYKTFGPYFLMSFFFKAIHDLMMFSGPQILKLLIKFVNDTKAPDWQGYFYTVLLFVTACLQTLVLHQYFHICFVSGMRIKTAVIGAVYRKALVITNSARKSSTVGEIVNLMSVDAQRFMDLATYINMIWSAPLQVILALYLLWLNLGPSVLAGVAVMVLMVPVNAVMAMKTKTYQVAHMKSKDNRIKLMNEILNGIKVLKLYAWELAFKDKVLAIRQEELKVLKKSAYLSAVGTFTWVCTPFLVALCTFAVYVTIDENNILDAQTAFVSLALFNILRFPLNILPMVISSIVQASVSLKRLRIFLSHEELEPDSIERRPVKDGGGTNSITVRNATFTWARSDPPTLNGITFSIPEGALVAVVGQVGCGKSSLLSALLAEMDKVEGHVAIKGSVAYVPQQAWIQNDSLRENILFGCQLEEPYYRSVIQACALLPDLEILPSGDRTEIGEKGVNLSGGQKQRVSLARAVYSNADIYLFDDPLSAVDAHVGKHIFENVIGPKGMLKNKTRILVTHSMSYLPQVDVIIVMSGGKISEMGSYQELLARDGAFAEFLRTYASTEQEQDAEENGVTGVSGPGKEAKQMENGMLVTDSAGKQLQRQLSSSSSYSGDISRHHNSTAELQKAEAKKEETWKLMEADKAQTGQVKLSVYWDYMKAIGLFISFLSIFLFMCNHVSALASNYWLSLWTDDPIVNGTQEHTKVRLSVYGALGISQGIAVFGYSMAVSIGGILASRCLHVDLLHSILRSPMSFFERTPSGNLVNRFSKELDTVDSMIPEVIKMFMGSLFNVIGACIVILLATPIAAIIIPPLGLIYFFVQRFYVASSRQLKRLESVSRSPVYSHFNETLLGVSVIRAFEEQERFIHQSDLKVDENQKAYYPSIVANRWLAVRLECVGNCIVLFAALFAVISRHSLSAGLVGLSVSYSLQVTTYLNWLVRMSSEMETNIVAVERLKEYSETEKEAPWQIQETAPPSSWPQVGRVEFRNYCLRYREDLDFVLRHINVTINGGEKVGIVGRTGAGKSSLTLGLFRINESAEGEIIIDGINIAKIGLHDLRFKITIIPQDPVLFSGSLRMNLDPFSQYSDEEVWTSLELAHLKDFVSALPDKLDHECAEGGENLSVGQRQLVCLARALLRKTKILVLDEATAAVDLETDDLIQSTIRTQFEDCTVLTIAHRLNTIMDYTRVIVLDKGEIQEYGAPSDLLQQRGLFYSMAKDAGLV
T2 sequence (P08183 whole entry): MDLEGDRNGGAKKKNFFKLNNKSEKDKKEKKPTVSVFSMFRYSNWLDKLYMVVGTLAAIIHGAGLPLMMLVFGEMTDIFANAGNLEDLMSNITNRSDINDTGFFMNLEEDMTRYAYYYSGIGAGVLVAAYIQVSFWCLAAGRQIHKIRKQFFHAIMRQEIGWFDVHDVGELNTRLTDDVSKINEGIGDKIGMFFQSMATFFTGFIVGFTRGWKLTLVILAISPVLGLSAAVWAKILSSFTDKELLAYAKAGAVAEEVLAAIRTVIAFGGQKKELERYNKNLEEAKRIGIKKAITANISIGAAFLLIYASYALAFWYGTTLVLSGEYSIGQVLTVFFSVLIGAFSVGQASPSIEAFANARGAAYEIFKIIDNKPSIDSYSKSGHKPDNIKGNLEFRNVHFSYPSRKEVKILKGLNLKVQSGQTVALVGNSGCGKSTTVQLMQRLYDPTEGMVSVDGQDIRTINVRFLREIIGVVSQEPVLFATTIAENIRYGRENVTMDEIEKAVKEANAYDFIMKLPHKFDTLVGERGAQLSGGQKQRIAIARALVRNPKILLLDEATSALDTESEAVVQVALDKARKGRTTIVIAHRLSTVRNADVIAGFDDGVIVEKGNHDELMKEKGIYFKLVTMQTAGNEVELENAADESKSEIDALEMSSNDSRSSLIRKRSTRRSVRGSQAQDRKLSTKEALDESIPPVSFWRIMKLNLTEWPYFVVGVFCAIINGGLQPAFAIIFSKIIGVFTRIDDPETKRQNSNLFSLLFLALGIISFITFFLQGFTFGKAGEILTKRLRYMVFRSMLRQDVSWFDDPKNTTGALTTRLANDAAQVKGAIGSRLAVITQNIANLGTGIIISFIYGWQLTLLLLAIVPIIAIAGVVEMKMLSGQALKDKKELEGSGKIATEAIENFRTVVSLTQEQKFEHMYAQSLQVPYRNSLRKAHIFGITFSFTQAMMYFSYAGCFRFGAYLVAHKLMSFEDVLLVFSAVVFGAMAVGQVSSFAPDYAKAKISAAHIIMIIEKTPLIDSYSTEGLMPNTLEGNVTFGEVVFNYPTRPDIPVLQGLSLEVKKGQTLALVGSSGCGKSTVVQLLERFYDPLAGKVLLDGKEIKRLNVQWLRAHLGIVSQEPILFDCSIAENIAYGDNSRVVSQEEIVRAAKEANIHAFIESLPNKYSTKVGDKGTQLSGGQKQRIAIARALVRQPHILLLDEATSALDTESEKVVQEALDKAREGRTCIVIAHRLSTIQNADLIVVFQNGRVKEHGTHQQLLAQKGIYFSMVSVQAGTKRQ
Method for BCRP/ABCG2: The cells were seeded in 96-well plates at a density of 5×10^4 cells/well in 200 μL of medium and incubated overnight. Then the growth medium was changed to fresh medium containing the compounds and in the presence of 4 μM MX as a fluorescent probe for BCRP-mediated efflux at a final concentration of 0.5% (v/v) DMSO. After 30 min incubation at 37° C., the medium was removed, and the cells were washed with 100 μL of Dulbecco's phosphate-buffered saline (DPBS) followed by dissociation of the cells for 5 min at 37° C. mediated by 25 μL trypsin. Finally, trypsin was neutralised with 175 μL of DPBS ice-cold with 2% bovine serum albumin (BSA) and the cells were carefully resuspended. As a selectivity assay, the same experiment was performed for P-gp and MRP1-mediated efflux with 0.5 μM R123 or 0.2 μM cAM as respective fluorescent substrates instead of MX.
Intracellular fluorescence was measured with a MacsQUANT VRB Analyzer flow cytometer (Miltenyi Biotec) with at least 5000 events recorded. While MX was excited at 635 nm and the fluorescence emission recorded in a 655-730 nm window, R123 and cAM were excited at 488 nm and recorded in a 525/50 nm filter. The compound inhibition yield was estimated by the following equation:
where G2FA is the fluorescence emission (a.u.) of accumulated fluorophore in cells expressing the efflux pump incubated with a fluorescent substrate and the test compound. G2FBG is the resulting background fluorescence emission (a.u.) in cells transfected with ABCG2 (no substrate or test compound). G2S is the fluorescence emission (a.u.) of accumulated fluorophore in cells expressing the efflux pump incubated with substrate only. HEKFA is the fluorescence emission (a.u.) of accumulated fluorophore in control cells incubated with the substrate and test compound. HEKFBG is the resulting background fluorescence emission (a.u.) in control cells (no substrate or test compound). All values are given as the geometric mean fluorescence emission (a.u.) in a 655-730 nm filter (635 nm excitation) measured over 5000 events. The tests were performed in triplicate.

Turning to `COC(=O)[C@@H](Cc1c[nH]c2ccccc12)NC(=O)c1cc(=O)c2c(OCc3ccc(Br)cc3)cccc2o1` [5i (series 1), methyl (5-((4-bromobenzyl)oxy)-4-oxo-4H-chromene-2-carbonylamino)-D-tryptophanate], the melting point lay within 236.2 to 237.9 °C. At BCRP/ABCG2, this compound registered an IC50 of 290 ± 50 nM. On BCRP/ABCG2 (setting [2]), this compound gave an inhibition at 30 min, 1 µM of 84.8%; an inhibition at 30 min, 1 μM of 85 ± 12%; an inhibition at 30 min, 10 μM of 96.3 ± 19%. At P-gp (ABCB1), this compound gave an inhibition at 30 min, 1 μM of 7.2 ± 1.3% and an inhibition at 30 min, 10 μM of 6.1 ± 1.1%. Also, on MRP1 (ABCC1), the inhibition at 30 min, 1 μM was 11.9% and the inhibition at 30 min, 10 μM was 12.6%.
`CCC(C)[C@H](NC(=O)c1cc(=O)c2c(OCc3ccccc3Br)cccc2o1)C(=O)O` (stereo partly drawn) [6a (series 1), (5-((2-bromobenzyl)oxy)-4-oxo-4H-chromene-2-carbonylamino)-L-alloisoleucine] displayed a melting point of 242.8 to 243.7 °C. Besides, at BCRP/ABCG2 (setting [2]), the inhibition at 30 min, 1 μM is 0% and the inhibition at 30 min, 10 μM stood at 1.6 ± 3.1%. At P-gp (ABCB1), the inhibition at 30 min, 1 μM worked out at 7.8% and the inhibition at 30 min, 10 μM came out at 7.9 ± 2.3%. In addition, at MRP1 (ABCC1), the inhibition at 30 min, 1 μM is 17.1% and the inhibition at 30 min, 10 μM was 13.1 ± 2.4%.
On to `COc1ccc2c3c([nH]c2c1)[C@H](CC(C)C)N1C(=O)[C@H](CCC(=O)OC(C)(C)C)NC(=O)[C@@H]1C3` [Ko143], for which, in data set [1], the “rapidly metabolised, time” value is 60 min.

Source of the values: patent US20220267289A1, “SELECTIVE BCRP/ABCG2 TRANSPORTER INHIBITORS AS AGENTS TO ABOLISH RESISTANCE TO ANTI-CANCER AGENTS” (UNIVERSITE GRENOBLE ALPES, priority 2019, published 2022).
